Laboratory results taken from US10294248B2, “Beta-lactamase inhibitors” (VenatoRx Pharmaceuticals, Inc., priority 2013, dated 2019).
pIC50: −log10 of the molar value.

How the values were obtained:
[1] = biological target: T1, SHV-5 β-lactamase (Class A ESBL) (Klebsiella pneumoniae, UniProt P0A3M1); assay: β-Lactamase inhibition, SHV-5; type: biochemical
T1 construct: made in house; host or cells: E. coli BL21(DE3)
Method in brief: (§1)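 Read-out is the rate of β-lactam ring hydrolysis monitored by absorbance: 300 nm for imipenem with KPC-2 and 260 nm for cefotaxime with SHV-5. Recombinant native enzymes were first incubated with compound at 37 °C for 15 min. The IC50 is the inhibitor concentration that halves the initial hydrolysis rate.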

[2] = biological target: T2, KPC-2 β-lactamase (Class A carbapenemase) (Klebsiella pneumoniae, UniProt Q9F663); assay: β-Lactamase inhibition, KPC-2; type: biochemical; conditions: imipenem substrate, 300 nm; 15 min preincubation at 37° C., PBS pH 7.4
T2 construct: made in house; host or cells: E. coli BL21(DE3)
T2 sequence (Q9F663 25-293, looked up): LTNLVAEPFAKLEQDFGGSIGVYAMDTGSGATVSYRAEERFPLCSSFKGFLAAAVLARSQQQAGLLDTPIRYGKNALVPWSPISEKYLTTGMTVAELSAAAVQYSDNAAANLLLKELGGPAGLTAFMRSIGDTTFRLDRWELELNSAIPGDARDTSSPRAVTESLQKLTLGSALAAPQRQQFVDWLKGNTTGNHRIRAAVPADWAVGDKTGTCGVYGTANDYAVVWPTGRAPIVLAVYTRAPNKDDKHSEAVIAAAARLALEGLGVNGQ
Method in brief: as §1

[3] = biological target: T3, VIM-2 metallo-β-lactamase (Class B) (Pseudomonas aeruginosa, UniProt Q9K2N0); assay: β-Lactamase inhibition, VIM-2; type: biochemical; conditions: nitrocefin 100 μM, 486 nm; 15 min preincubation at 37° C., PBS pH 7.4
T3 construct: made in house; host or cells: E. coli BL21(DE3)
Method in brief: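 IC50 reflects the inhibitor concentration cutting the initial nitrocefin hydrolysis rate by half, compared with control wells lacking inhibitor. Substrate was used at 100 μM final after a 15 min, 37 °C enzyme–inhibitor preincubation.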

[4] = biological target: T4, p99 AmpC β-lactamase (Class C) (Enterobacter cloacae, UniProt P05364); assay: β-Lactamase inhibition, p99 AmpC; type: biochemical
T4 construct: made in house; host or cells: E. coli BL21(DE3)
T4 sequence (P05364 21-381): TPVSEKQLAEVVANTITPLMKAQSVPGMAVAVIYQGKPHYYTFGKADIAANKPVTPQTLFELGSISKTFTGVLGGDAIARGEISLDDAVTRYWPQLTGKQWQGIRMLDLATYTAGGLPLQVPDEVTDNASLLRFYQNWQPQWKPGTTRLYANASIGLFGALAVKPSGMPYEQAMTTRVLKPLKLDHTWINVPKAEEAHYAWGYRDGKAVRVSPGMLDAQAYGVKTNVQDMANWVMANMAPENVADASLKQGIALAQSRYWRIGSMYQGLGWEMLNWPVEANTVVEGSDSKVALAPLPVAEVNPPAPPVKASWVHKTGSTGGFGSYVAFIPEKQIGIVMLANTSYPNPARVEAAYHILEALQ

[5] = biological target: T5, OXA-1 β-lactamase (Class D oxacillinase) (Escherichia coli, UniProt P13661); assay: β-Lactamase inhibition, OXA-1; type: biochemical; conditions: nitrocefin 100 μM, 486 nm; 15 min preincubation at 37° C., PBS pH 7.4
T5 construct: made in house; host or cells: E. coli BL21(DE3)
T5 sequence (P13661 26-276): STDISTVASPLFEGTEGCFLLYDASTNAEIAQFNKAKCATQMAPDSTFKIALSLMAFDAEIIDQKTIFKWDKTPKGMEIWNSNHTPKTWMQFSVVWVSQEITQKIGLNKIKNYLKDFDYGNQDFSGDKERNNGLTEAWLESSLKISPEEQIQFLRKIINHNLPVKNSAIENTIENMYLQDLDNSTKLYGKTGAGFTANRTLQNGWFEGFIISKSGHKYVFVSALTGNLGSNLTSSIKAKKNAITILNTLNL
Method in brief: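 Untagged enzyme from E. coli BL21(DE3), purified by Capto S then Superdex 75; 15 min 37 °C preincubation with inhibitor; KPC-2 read with imipenem at 300 nm, SHV-5 with cefotaxime at 260 nm, OXA-1 with nitrocefin 100 μM final at 486 nm; 10 min kinetic read; IC50 vs uninhibited wells.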

[6] = system: E. coli ESBL4 expressing CTX-M-15; assay: Broth microdilution MIC, E. coli ESBL4 CTX-M-15; type: cell-based; conditions: fixed 4 μg/mL ceftazidime; CAMHB, 16-20 hours at 37° C.
Method in brief: (§2)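 Growth inhibition by test compound in presence of a fixed 4 μg/ml β-lactam; CLSI microdilution in CAMHB, visual endpoint after overnight 37° C incubation.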

[7] = system: E. cloacae 144200 expressing Class C P99 AmpC; assay: Broth microdilution MIC, E. cloacae 144200 p99 AmpC; type: cell-based; conditions: fixed 4 μg/mL ceftazidime; CAMHB, 16-20 hours at 37° C.
Method in brief: as §2

[8] = system: K. pneumoniae 156319 expressing KPC-3; assay: Broth microdilution MIC, K. pneumoniae 156319 KPC-3; type: cell-based; conditions: fixed 4 μg/mL meropenem; CAMHB, 16-20 hours at 37° C.
Method in brief: as §2

[9] = system: P. aeruginosa Ps296 expressing VIM-2; assay: Broth microdilution MIC, P. aeruginosa Ps296 VIM-2; type: cell-based; conditions: fixed 4 μg/mL meropenem; CAMHB, 16-20 hours at 37° C.
Method in brief: as §2

[10] = system: K. pneumoniae A-1797 expressing KPC-2 and VIM-4; assay: Broth microdilution MIC, K. pneumoniae A-1797 KPC-2/VIM-4; type: cell-based; conditions: fixed 4 μg/mL meropenem; CAMHB, 16-20 hours at 37° C.
Method in brief: as §2

[11] = system: S. aureus MSSA-7 producing penicillinase PC-1; assay: Broth microdilution MIC, S. aureus MSSA-7 PC-1; type: cell-based; conditions: fixed 4 μg/mL piperacillin; CAMHB, 16-20 hours at 37° C.
Method in brief: as §2

T1 sequence (P0A3M1 22-286): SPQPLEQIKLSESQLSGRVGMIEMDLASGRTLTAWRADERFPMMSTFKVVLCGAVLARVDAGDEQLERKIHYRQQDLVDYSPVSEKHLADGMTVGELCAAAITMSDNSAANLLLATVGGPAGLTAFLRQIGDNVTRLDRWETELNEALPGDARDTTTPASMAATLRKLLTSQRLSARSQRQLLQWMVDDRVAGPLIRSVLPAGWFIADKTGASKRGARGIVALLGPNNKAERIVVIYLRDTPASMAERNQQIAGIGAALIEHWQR

SMILES | pIC50 [1] | pIC50 [2] | pIC50 [3] | pIC50 [4] | pIC50 [5] | MIC of example compound in presence of fixed β-lactam: Fixed CAZ, E. coli ESBL4 CTX-M-15 [6] | MIC of example compound in presence of fixed β-lactam: Fixed CAZ, E. cl. 144200 p99 AmpC [7] | MIC of example compound in presence of fixed β-lactam: Fixed Mero, K. P. 156319 KPC-3 [8] | MIC of example compound in presence of fixed β-lactam: Fixed Mero, P. aerug. Ps296 VIM-2 [9] | MIC of example compound in presence of fixed β-lactam: Fixed Mero, K. P. A-1797 KPC-2 VIM-4 [10] | MIC of example compound in presence of fixed β-lactam: Fixed Pip, S. aureus MSSA-7 PC-1 [11]
N[C@@H]1CCN(CC(=O)N[C@H]2Cc3cccc(C(=O)O)c3OB2O)C1 [Example 6, 3-[2-(R-3-Amino-pyrrolidin-1-yl)-acetylamino]-2-hydroxy-3,4-dihydro-2H-benzo[e][1,2]oxaborinine-8-carboxylic acid] | > 7.00 | 6.00 to 7.00 | 5.00 to 6.00 | > 7.00 | 6.00 to 7.00 | C (the MIC in the presence of <4 μg/mL of a β-lactamase inhibitor) | C (the MIC in the presence of <4 μg/mL of a β-lactamase inhibitor) | C (the MIC in the presence of <4 μg/mL of a β-lactamase inhibitor) | B (the MIC in the presence of between 8 and 32 μg/mL of a β-lactamase inhibitor) | B (the MIC in the presence of between 8 and 32 μg/mL of a β-lactamase inhibitor) | A (an MIC of the fixed β-lactam antibiotic in the presence of >32 μg/mL of a β-lactamase inhibitor)
NCC(=O)N1CCN(CC(=O)N[C@H]2Cc3cccc(C(=O)O)c3OB2O)CC1 [Example 17, 3-{2-[4-(2-Amino-acetyl)-piperazin-1-yl]-acetylamino}-2-hydroxy-3,4-dihydro-2H-benzo[e][1,2]oxaborinine-8-carboxylic acid] | > 7.00 | 6.00 to 7.00 | 5.00 to 6.00 | > 7.00 | > 7.00 | B (the MIC in the presence of between 8 and 32 μg/mL of a β-lactamase inhibitor) | C (the MIC in the presence of <4 μg/mL of a β-lactamase inhibitor) | B (the MIC in the presence of between 8 and 32 μg/mL of a β-lactamase inhibitor) | A (an MIC of the fixed β-lactam antibiotic in the presence of >32 μg/mL of a β-lactamase inhibitor) | A (an MIC of the fixed β-lactam antibiotic in the presence of >32 μg/mL of a β-lactamase inhibitor) | C (the MIC in the presence of <4 μg/mL of a β-lactamase inhibitor)
CN(CC(=O)N[C@H]1Cc2cccc(C(=O)O)c2OB1O)C1CCNCC1 [Example 43, 2-Hydroxy-3-[2-(methyl-piperidin-4-yl-amino)-acetylamino]-3,4-dihydro-2H-benzo[e][1,2]oxaborinine-8-carboxylic acid] | > 7.00 | > 7.00 | 6.00 to 7.00 | > 7.00 | > 7.00 | C (the MIC in the presence of <4 μg/mL of a β-lactamase inhibitor) | C (the MIC in the presence of <4 μg/mL of a β-lactamase inhibitor) | C (the MIC in the presence of <4 μg/mL of a β-lactamase inhibitor) | C (the MIC in the presence of <4 μg/mL of a β-lactamase inhibitor) | C (the MIC in the presence of <4 μg/mL of a β-lactamase inhibitor) | C (the MIC in the presence of <4 μg/mL of a β-lactamase inhibitor)
NCCN1CCC(NCC(=O)N[C@H]2Cc3cccc(C(=O)O)c3OB2O)CC1 [Example 52, 3-{2-[1-(2-Amino-ethyl)-piperidin-4-ylamino]-acetylamino}-2-hydroxy-3,4-dihydro-2H-benzo[e][1,2]oxaborinine-8-carboxylic acid] | > 7.00 | > 7.00 | 5.00 to 6.00 | > 7.00 | > 7.00 | C (the MIC in the presence of <4 μg/mL of a β-lactamase inhibitor) | C (the MIC in the presence of <4 μg/mL of a β-lactamase inhibitor) | C (the MIC in the presence of <4 μg/mL of a β-lactamase inhibitor) | B (the MIC in the presence of between 8 and 32 μg/mL of a β-lactamase inhibitor) | B (the MIC in the presence of between 8 and 32 μg/mL of a β-lactamase inhibitor) | C (the MIC in the presence of <4 μg/mL of a β-lactamase inhibitor)
CNC1CCN(CC(=O)N[C@H]2Cc3cccc(C(=O)O)c3OB2O)CC1 [Example 14, 2-Hydroxy-3-[2-(4-methylamino-piperidin-1-yl)-acetylamino]-3,4-dihydro-2H-benzo[e][1,2]oxaborinine-8-carboxylic acid] | 6.00 to 7.00 | 6.00 to 7.00 | 5.00 to 6.00 | > 7.00 | 6.00 to 7.00 | C (the MIC in the presence of <4 μg/mL of a β-lactamase inhibitor) | C (the MIC in the presence of <4 μg/mL of a β-lactamase inhibitor) | C (the MIC in the presence of <4 μg/mL of a β-lactamase inhibitor) | B (the MIC in the presence of between 8 and 32 μg/mL of a β-lactamase inhibitor) | B (the MIC in the presence of between 8 and 32 μg/mL of a β-lactamase inhibitor) | C (the MIC in the presence of <4 μg/mL of a β-lactamase inhibitor)
COC1CN(CC(=O)N[C@H]2Cc3cccc(C(=O)O)c3OB2O)CCC1N (some centres unmarked) [Example 21, 3-[2-(4-Amino-3-methoxy-piperidin-1-yl)-acetylamino]-2-hydroxy-3,4-dihydro-2H-benzo[e][1,2]oxaborinine-8-carboxylic acid] | > 7.00 | 6.00 to 7.00 | 5.00 to 6.00 | > 7.00 | > 7.00 | C (the MIC in the presence of <4 μg/mL of a β-lactamase inhibitor) | C (the MIC in the presence of <4 μg/mL of a β-lactamase inhibitor) | C (the MIC in the presence of <4 μg/mL of a β-lactamase inhibitor) | B (the MIC in the presence of between 8 and 32 μg/mL of a β-lactamase inhibitor) | A (an MIC of the fixed β-lactam antibiotic in the presence of >32 μg/mL of a β-lactamase inhibitor) | C (the MIC in the presence of <4 μg/mL of a β-lactamase inhibitor)
NCCN1CCN(CC(=O)N[C@H]2Cc3cccc(C(=O)O)c3OB2O)C(=O)C1 [Example 36, 3-{2-[4-(2-Amino-ethyl)-2-oxo-piperazin-1-yl]-acetylamino}-2-hydroxy-3,4-dihydro-2H-benzo[e][1,2]oxaborinine-8-carboxylic acid] | > 7.00 | 6.00 to 7.00 | 5.00 to 6.00 | > 7.00 | > 7.00 | C (the MIC in the presence of <4 μg/mL of a β-lactamase inhibitor) | C (the MIC in the presence of <4 μg/mL of a β-lactamase inhibitor) | B (the MIC in the presence of between 8 and 32 μg/mL of a β-lactamase inhibitor) | B (the MIC in the presence of between 8 and 32 μg/mL of a β-lactamase inhibitor) | B (the MIC in the presence of between 8 and 32 μg/mL of a β-lactamase inhibitor) | C (the MIC in the presence of <4 μg/mL of a β-lactamase inhibitor)
